Measurements as given in US8501946B2 (Glaxo Group Limited, priority 2009, dated 2013).

Biological target: T1, human recombinant P2X7 receptors (Homo sapiens, UniProt Q99572)
T1 construct: expressed in transfected cells
T1 sequence (Q99572 1-595): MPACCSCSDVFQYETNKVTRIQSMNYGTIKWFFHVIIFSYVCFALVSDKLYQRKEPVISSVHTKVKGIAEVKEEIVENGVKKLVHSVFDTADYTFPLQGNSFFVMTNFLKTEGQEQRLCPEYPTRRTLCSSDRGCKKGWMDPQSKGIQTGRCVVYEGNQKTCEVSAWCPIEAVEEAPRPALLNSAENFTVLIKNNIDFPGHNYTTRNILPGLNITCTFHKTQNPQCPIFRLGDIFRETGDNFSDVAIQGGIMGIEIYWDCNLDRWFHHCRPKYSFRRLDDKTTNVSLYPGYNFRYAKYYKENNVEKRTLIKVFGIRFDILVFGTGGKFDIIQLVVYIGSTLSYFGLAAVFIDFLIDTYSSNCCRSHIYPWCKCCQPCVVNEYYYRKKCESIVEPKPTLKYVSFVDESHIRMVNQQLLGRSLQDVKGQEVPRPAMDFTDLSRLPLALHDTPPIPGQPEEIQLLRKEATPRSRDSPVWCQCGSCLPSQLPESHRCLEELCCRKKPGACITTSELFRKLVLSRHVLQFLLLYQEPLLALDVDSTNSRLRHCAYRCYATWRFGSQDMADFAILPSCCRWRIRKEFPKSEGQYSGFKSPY
Test: Ethidium Accumulation Assay 1 (HEK293 cells, ATP-induced ethidium uptake)
Format: cell-based
Settings: HEK293 cells expressing human P2X7; 1 mM ATP; sometimes mean of more than one measurement; read-out: Assay 1 (antagonist pIC50 for blocking ATP responses) (converted)
Protocol: Eithidium Accumulation Assay 1
Studies were performed using NaCl assay buffer of the following composition: 140 mM NaCl, 10 mM HEPES [4-(2-hydroxyethyl)-1-piperazine-1-ethanesulfonic acid], 5 mM N-methyl-D-glucamine, 5.6 mM KCl, 10 mM D-glucose, 0.5 mM CaCl2 (pH 7.4).
Human Embryonic Kidney (HEK) 293 cells, stably expressing human recombinant P2X7 receptors, were grown in poly-D-lysine pretreated 96 well plates for 18-24 hours.
The cells were washed twice with 350 μl of the assay buffer, before addition of 50 μl of the assay buffer containing the putative P2X7 receptor antagonist compound. (A small amount of dimethyl sulfoxide, for initially dissolving the compound, is optionally used and present in this 50 μl test compound sample.) The cells were then incubated at room temperature (19-21° C.) for 30 min before addition of ATP and ethidium (100 μM final assay concentration). The ATP concentration was chosen to be close to the EC80 for the receptor type and was 1 mM for studies on the human P2X7 receptor. Incubations were continued for 8 or 16 min and were terminated by addition of 25 μl of 1.3M sucrose containing 4 mM of the P2X7 receptor antagonist Reactive Black 5 (Aldrich). […] Antagonist pIC50 values for blocking ATP responses were determined using iterative curve fitting techniques.

SMILES | IC50 [nM]
O=C(c1cccc(C(F)(F)F)c1Cl)N1CCn2c(nnc2C(F)(F)F)C1 [Example 2, 7-{[2-chloro-3-(trifluoromethyl)phenyl]carbonyl}-3-(trifluoromethyl)-5,6,7,8-tetrahydro[1,2,4]triazolo [4,3-a]pyrazine] | < 100
O=C(c1cccc(C(F)(F)F)c1Cl)N1CCn2c(nnc2-c2cccc(F)n2)C1 [Example 53, 7-{[2-chloro-3-(trifluoromethyl)phenyl]carbonyl}-3-(6-fluoro-2-pyridinyl)-5,6,7,8-tetrahydro[1,2,4]triazolo [4,3-a]pyrazine] | < 10
CN(C)c1nnc2n1CCN(C(=O)c1cccc(C(F)(F)F)c1Cl)C2 [Example 20, 7-{[2-chloro-3-(trifluoromethyl)phenyl]carbonyl}-N,N-dimethyl-5,6,7,8-tetrahydro[1,2,4]triazolo [4,3-a]pyrazine-3-amine] | < 100
COc1nnc2n1CCN(C(=O)c1cccc(C(F)(F)F)c1Cl)C2 [Example 17, 7-{[2-Chloro-3-(trifluoromethyl)phenyl]carbonyl}-3-(methyloxy)-5,6,7,8-tetrahydro[1,2,4]triazolo[4,3-a]pyrazine] | < 100
Cc1cc(-c2nnc3n2CCN(C(=O)c2cccc(Cl)c2Cl)C3)no1 [Example 49, 7-[(2,3-dichlorophenyl)carbonyl]-3-(5-methyl-3-isoxazolyl)-5,6,7,8-tetrahydro[1,2,4]triazolo [4,3-a]pyrazine] | < 100
O=C(c1ccccc1Cl)N1CCn2c(nnc2-c2ccccn2)C1 [Example 75, 7-[(2-chlorophenyl)carbonyl]-3-(2-pyridinyl)-5,6,7,8-tetrahydro[1,2,4]triazolo [4,3-a]pyrazine] | < 100
Cc1ccc(-c2nnc3n2CCN(C(=O)c2cccc(C(F)(F)F)c2Cl)C3)nc1 [Example 51, 7-{[2-chloro-3-(trifluoromethyl)phenyl]carbonyl}-3-(5-methyl-2-pyridinyl)-5,6,7,8-tetrahydro[1,2,4]triazolo [4,3-a]pyrazine] | < 100
O=C(c1c(F)cccc1Cl)N1CCn2c(nnc2-c2ccccn2)C1 [Example 79, 7-[(2-chloro-6-fluorophenyl)carbonyl]-3-(2-pyridinyl)-5,6,7,8-tetrahydro[1,2,4]triazolo [4,3-a]pyrazine] | < 501
Cc1cccnc1-c1nnc2n1CCN(C(=O)c1cccc(C(F)(F)F)c1Cl)C2 [Example 28, 7-{[2-chloro-3-(trifluoromethyl)phenyl]carbonyl}-3-(3-methyl-2-pyridinyl)-5,6,7,8-tetrahydro[1,2,4]triazolo [4,3-a]pyrazine] | < 10
O=C(c1ccc(F)cc1Cl)N1CCn2c(nnc2-c2ccccc2)C1 [Example 30, 7-[(2-Chloro-4-fluorophenyl)carbonyl]-3-phenyl-5,6,7,8-tetrahydro[1,2,4]triazolo[4,3-a]pyrazine] | < 100
O=C(c1ccc(F)cc1Cl)N1CCn2c(nnc2-c2ncc(F)cc2F)C1 [Example 84, 7-[(2-chloro-4-fluorophenyl)carbonyl]-3-(3,5-difluoro-2-pyridinyl)-5,6,7,8-tetrahydro[1,2,4]triazolo [4,3-a]pyrazine] | < 100
Cn1ccc(-c2nnc3n2CCN(C(=O)c2ccc(F)cc2Cl)C3)n1 [Example 72, 7-[(2-chloro-4-fluorophenyl)carbonyl]-3-(1-methyl-1H-pyrazol-3-yl)-5,6,7,8-tetrahydro[1,2,4]triazolo [4,3-a]pyrazine] | < 100
O=C(c1cccc(Cl)c1Cl)N1CCn2c(nnc2-c2cccc(F)n2)C1 [Example 55, 7-[(2,3-dichlorophenyl)carbonyl]-3-(6-fluoro-2-pyridinyl)-5,6,7,8-tetrahydro[1,2,4]triazolo [4,3-a]pyrazine] | < 100
O=C(c1ccc(F)cc1Cl)N1CCn2c(nnc2-c2cnccn2)C1 [Example 85, 7-[(2-chloro-4-fluorophenyl)carbonyl]-3-(2-pyrazinyl)-5,6,7,8-tetrahydro[1,2,4]triazolo[4,3-a]pyrazine] | < 10
O=C(c1cccc(C(F)(F)F)c1F)N1CCn2c(nnc2-c2ccccn2)C1 [Example 91, 7-{[2-fluoro-3-(trifluoromethyl)phenyl]carbonyl}-3-(2-pyridinyl)-5,6,7,8-tetrahydro[1,2,4]triazolo [4,3-a]pyrazine] | < 10
O=C(c1cccc(Cl)c1)N1CCn2c(nnc2-c2ccccn2)C1 [Example 80, 7-[(3-chlorophenyl)carbonyl]-3-(2-pyridinyl)-5,6,7,8-tetrahydro[1,2,4]triazolo [4,3-a]pyrazine] | < 100

Second part, the compound after the results:

IC50 [nM] | SMILES
< 10 | O=C(c1ccc(F)c(Cl)c1Cl)N1CCn2c(nnc2-c2cnccn2)C1 [Example 113, 7-[(2,3-Dichloro-4-fluorophenyl)carbonyl]-3-(2-pyrazinyl)-5,6,7,8-tetrahydro[1,2,4]triazolo[4,3-a]pyrazine]
< 100 | O=C(c1ccc(Cl)c(Cl)c1)N1CCn2c(nnc2-c2cnccn2)C1 [Example 115, 7-[(3,4-dichlorophenyl)carbonyl]-3-(2-pyrazinyl)-5,6,7,8-tetrahydro[1,2,4]triazolo[4,3-a]pyrazine]
< 100 | O=C(c1ccccc1C(F)(F)F)N1CCn2c(nnc2-c2ccccn2)C1 [Example 122, 3-(2-pyridinyl)-7-{[2-(trifluoromethyl)phenyl]carbonyl}-5,6,7,8-tetrahydro[1,2,4]triazolo[4,3-a]pyrazine]
< 100 | O=C(c1ccccc1Cl)N1CCn2c(nnc2-c2ccc(F)cc2)C1 [Example 119, 7-[(2-chlorophenyl)carbonyl]-3-(4-fluorophenyl)-5,6,7,8-tetrahydro[1,2,4]triazolo[4,3-a]pyrazine]
< 100 | O=C(c1ccc(Cl)cc1Cl)N1CCn2c(nnc2-c2ccc(F)cc2F)C1 [Example 101, 7-[(2,4-dichlorophenyl)carbonyl]-3-(2,4-difluorophenyl)-5,6,7,8-tetrahydro[1,2,4]triazolo [4,3-a]pyrazine]
< 501 | O=C(c1ccc(F)cc1Cl)N1CCn2c(Br)nnc2C1 [Example 109, 3-Bromo-7-[(2-chloro-4-fluorophenyl)carbonyl]-5,6,7,8-tetrahydro[1,2,4]triazolo[4,3-a]pyrazine]
< 10 | O=C(c1ccc(Cl)cc1Cl)N1CCn2c(nnc2-c2cnccn2)C1 [Example 92, 7-[(2,4-dichlorophenyl)carbonyl]-3-(2-pyrazinyl)-5,6,7,8-tetrahydro[1,2,4]triazolo[4,3-a]pyrazine]
< 100 | O=C(c1ccc(F)cc1Cl)N1CCn2c(nnc2-c2ccc(F)c(F)c2)C1 [Example 124, 7-[(2-chloro-4-fluorophenyl)carbonyl]-3-(3,4-difluorophenyl)-5,6,7,8-tetrahydro[1,2,4]triazolo[4,3-a]pyrazine]
< 501 | Cc1nc(-c2nnc3n2CCN(C(=O)c2ccc(F)cc2Cl)C3)cs1 [Example 136, 7-[(2-chloro-4-fluorophenyl)carbonyl]-3-(2-methyl-1,3-thiazol-4-yl)-5,6,7,8-tetrahydro[1,2,4]triazolo[4,3-a]pyrazine]
< 501 | O=C(c1ccc(F)cc1Cl)N1CCn2c(nnc2-c2cnc(Cl)cn2)C1 [Example 141, 7-[(2-Chloro-4-fluorophenyl)carbonyl]-3-(5-chloro-2-pyrazinyl)-5,6,7,8-tetrahydro[1,2,4]triazolo[4,3-a]pyrazine]
< 10 | O=C(c1ccccc1Cl)N1CCn2c(nnc2-c2ccco2)C1 [Example 117, 7-[(2-chlorophenyl)carbonyl]-3-(2-furanyl)-5,6,7,8-tetrahydro[1,2,4]triazolo[4,3-a]pyrazine]
< 100 | O=C(c1ccccc1Cl)N1CCn2c(nnc2-c2ccc(F)cn2)C1 [Example 118, 7-[(2-chlorophenyl)carbonyl]-3-(5-fluoro-2-pyridinyl)-5,6,7,8-tetrahydro[1,2,4]triazolo[4,3-a]pyrazine]
< 100 | O=C(c1cccc(C(F)(F)F)c1Cl)N1CCn2c(nnc2C2CCCCC2)C1 [Example 135, 7-{[2-chloro-3-(trifluoromethyl)phenyl]carbonyl}-3-cyclohexyl-5,6,7,8-tetrahydro[1,2,4]triazolo[4,3-a]pyrazine]
< 10 | O=C(c1ccc(Cl)cc1F)N1CCn2c(nnc2-c2cnccn2)C1 [Example 106, 7-[(4-chloro-2-fluorophenyl)carbonyl]-3-(2-pyrazinyl)-5,6,7,8-tetrahydro[1,2,4]triazolo [4,3-a]pyrazine]
